According to PubChem BioAssay AID1259407 (Chemical Carcinogenesis Research Information System (CCRIS), 2018):
Activity calls are given as the source filed them. The rule behind the calls is not given here.

System: CCRIS mutagenicity, Ames/micronucleus/aberration tests
Assay: CCRIS mutagenicity studies
[1] = Test System: AMES SALMONELLA TYPHIMURIUM, Strain/Indicator: TA98, Metabolic Activation: NONE, Method: STANDARD PLATE
[2] = Test System: AMES SALMONELLA TYPHIMURIUM, Strain/Indicator: TA98, Metabolic Activation: RAT, LIVER, S-9, AROCLOR 1254, Method: STANDARD PLATE
[3] = Test System: AMES SALMONELLA TYPHIMURIUM, Strain/Indicator: TA100, Metabolic Activation: NONE, Method: STANDARD PLATE
[4] = Test System: AMES SALMONELLA TYPHIMURIUM, Strain/Indicator: TA100, Metabolic Activation: RAT, LIVER, S-9, AROCLOR 1254, Method: STANDARD PLATE

COC(=O)c1ccc(C(=O)OC)cc1
mutagenic call (End Point: IN VITRO CHROMOSOMAL ABERRATIONS, Test System: CHO-LB CELLS, Metabolic Activation: NONE): inactive; negative | mutagenic call (End Point: IN VITRO CHROMOSOMAL ABERRATIONS, Test System: CHO-LB CELLS, Metabolic Activation: RAT, LIVER, S-9, AROCLOR 1254): inactive; negative | mutagenic call (Test System: AMES SALMONELLA TYPHIMURIUM, Strain/Indicator: TA98, Metabolic Activation: HAMSTER, LIVER, S-9, AROCLOR 1254 (10%), Method: PREINCUBATION): inactive; negative | mutagenic call (Test System: AMES SALMONELLA TYPHIMURIUM, Strain/Indicator: TA98, Metabolic Activation: NONE, Method: PREINCUBATION): inactive; negative | mutagenic call [1]: inactive; negative | mutagenic call (Test System: AMES SALMONELLA TYPHIMURIUM, Strain/Indicator: TA98, Metabolic Activation: RAT LIVER S-9, AROCLOR 1254, Method: STANDARD PLATE): inactive; negative | mutagenic call (Test System: AMES SALMONELLA TYPHIMURIUM, Strain/Indicator: TA98, Metabolic Activation: RAT LIVER S-9, PHENOBARBITAL AND BETA-NAPHTHOFLAVONE, Method: PREINCUBATION): inactive; negative | mutagenic call (Test System: AMES SALMONELLA TYPHIMURIUM, Strain/Indicator: TA98, Metabolic Activation: RAT, LIVER, S-9, AROCLOR 1254 (10%), Method: PREINCUBATION): inactive; negative | mutagenic call [2]: inactive; negative | mutagenic call (Test System: AMES SALMONELLA TYPHIMURIUM, Strain/Indicator: TA98, Metabolic Activation: S-9, Method: STANDARD PLATE): inactive; negative | mutagenic call (Test System: AMES SALMONELLA TYPHIMURIUM, Strain/Indicator: TA100, Metabolic Activation: HAMSTER, LIVER, S-9, AROCLOR 1254 (10%), Method: PREINCUBATION): inactive; negative | mutagenic call (Test System: AMES SALMONELLA TYPHIMURIUM, Strain/Indicator: TA100, Metabolic Activation: NONE, Method: PREINCUBATION): inactive; negative | mutagenic call [3]: inactive; negative | mutagenic call (Test System: AMES SALMONELLA TYPHIMURIUM, Strain/Indicator: TA100, Metabolic Activation: RAT LIVER S-9, AROCLOR 1254, Method: STANDARD PLATE): inactive; negative | mutagenic call (Test System: AMES SALMONELLA TYPHIMURIUM, Strain/Indicator: TA100, Metabolic Activation: RAT LIVER S-9, PHENOBARBITAL AND BETA-NAPHTHOFLAVONE, Method: PREINCUBATION): inactive; negative | mutagenic call (Test System: AMES SALMONELLA TYPHIMURIUM, Strain/Indicator: TA100, Metabolic Activation: RAT, LIVER, S-9, AROCLOR 1254 (10%), Method: PREINCUBATION): inactive; negative | mutagenic call [4]: inactive; negative | mutagenic call (Test System: AMES SALMONELLA TYPHIMURIUM, Strain/Indicator: TA100, Metabolic Activation: S-9, Method: STANDARD PLATE): inactive; negative | mutagenic call (Test System: AMES SALMONELLA TYPHIMURIUM, Strain/Indicator: TA102, Metabolic Activation: NONE, Method: STANDARD PLATE): inactive; negative | mutagenic call (Test System: AMES SALMONELLA TYPHIMURIUM, Strain/Indicator: TA102, Metabolic Activation: S-9, Method: STANDARD PLATE): inactive; negative | mutagenic call (Test System: AMES SALMONELLA TYPHIMURIUM, Strain/Indicator: TA1535, Metabolic Activation: HAMSTER, LIVER, S-9, AROCLOR 1254 (10%), Method: PREINCUBATION): inactive; negative | mutagenic call (Test System: AMES SALMONELLA TYPHIMURIUM, Strain/Indicator: TA1535, Metabolic Activation: NONE, Method: PREINCUBATION): inactive; negative | mutagenic call (Test System: AMES SALMONELLA TYPHIMURIUM, Strain/Indicator: TA1535, Metabolic Activation: NONE, Method: STANDARD PLATE): inactive; negative | mutagenic call (Test System: AMES SALMONELLA TYPHIMURIUM, Strain/Indicator: TA1535, Metabolic Activation: RAT LIVER S-9, AROCLOR 1254, Method: STANDARD PLATE): inactive; negative | mutagenic call (Test System: AMES SALMONELLA TYPHIMURIUM, Strain/Indicator: TA1535, Metabolic Activation: RAT LIVER S-9, PHENOBARBITAL AND BETA-NAPHTHOFLAVONE, Method: PREINCUBATION): inactive; negative | mutagenic call (Test System: AMES SALMONELLA TYPHIMURIUM, Strain/Indicator: TA1535, Metabolic Activation: RAT, LIVER, S-9, AROCLOR 1254 (10%), Method: PREINCUBATION): inactive; negative | mutagenic call (Test System: AMES SALMONELLA TYPHIMURIUM, Strain/Indicator: TA1535, Metabolic Activation: RAT, LIVER, S-9, AROCLOR 1254, Method: STANDARD PLATE): inactive; negative | mutagenic call (Test System: AMES SALMONELLA TYPHIMURIUM, Strain/Indicator: TA1535, Metabolic Activation: S-9, Method: STANDARD PLATE): inactive; negative | mutagenic call (Test System: AMES SALMONELLA TYPHIMURIUM, Strain/Indicator: TA1537, Metabolic Activation: HAMSTER, LIVER, S-9, AROCLOR 1254 (10%), Method: PREINCUBATION): inactive; negative | mutagenic call (Test System: AMES SALMONELLA TYPHIMURIUM, Strain/Indicator: TA1537, Metabolic Activation: NONE, Method: PREINCUBATION): inactive; negative | mutagenic call (Test System: AMES SALMONELLA TYPHIMURIUM, Strain/Indicator: TA1537, Metabolic Activation: NONE, Method: STANDARD PLATE): inactive; negative | mutagenic call (Test System: AMES SALMONELLA TYPHIMURIUM, Strain/Indicator: TA1537, Metabolic Activation: RAT LIVER S-9, AROCLOR 1254, Method: STANDARD PLATE): inactive; negative | mutagenic call (Test System: AMES SALMONELLA TYPHIMURIUM, Strain/Indicator: TA1537, Metabolic Activation: RAT LIVER S-9, PHENOBARBITAL AND BETA-NAPHTHOFLAVONE, Method: PREINCUBATION): inactive; negative | mutagenic call (Test System: AMES SALMONELLA TYPHIMURIUM, Strain/Indicator: TA1537, Metabolic Activation: RAT, LIVER, S-9, AROCLOR 1254 (10%), Method: PREINCUBATION): inactive; negative | mutagenic call (Test System: AMES SALMONELLA TYPHIMURIUM, Strain/Indicator: TA1537, Metabolic Activation: RAT, LIVER, S-9, AROCLOR 1254, Method: STANDARD PLATE): inactive; negative | mutagenic call (Test System: AMES SALMONELLA TYPHIMURIUM, Strain/Indicator: TA1537, Metabolic Activation: S-9, Method: STANDARD PLATE): inactive; negative | mutagenic call (Test System: AMES SALMONELLA TYPHIMURIUM, Strain/Indicator: TA1538, Metabolic Activation: NONE, Method: PREINCUBATION): inactive; negative | mutagenic call (Test System: AMES SALMONELLA TYPHIMURIUM, Strain/Indicator: TA1538, Metabolic Activation: NONE, Method: STANDARD PLATE): inactive; negative | mutagenic call (Test System: AMES SALMONELLA TYPHIMURIUM, Strain/Indicator: TA1538, Metabolic Activation: RAT LIVER S-9, AROCLOR 1254, Method: STANDARD PLATE): inactive; negative | mutagenic call (Test System: AMES SALMONELLA TYPHIMURIUM, Strain/Indicator: TA1538, Metabolic Activation: RAT LIVER S-9, PHENOBARBITAL AND BETA-NAPHTHOFLAVONE, Method: PREINCUBATION): inactive; negative | mutagenic call (Test System: AMES SALMONELLA TYPHIMURIUM, Strain/Indicator: TA1538, Metabolic Activation: RAT, LIVER, S-9, AROCLOR 1254, Method: STANDARD PLATE): inactive; negative | mutagenic call (Test System: AMES SALMONELLA TYPHIMURIUM, Strain/Indicator: TA1538, Metabolic Activation: S-9, Method: STANDARD PLATE): inactive; negative | mutagenic call (Test System: E.COLI, Strain/Indicator: WP2UVRA, Metabolic Activation: NONE, Method: PREINCUBATION): inactive; negative | mutagenic call (Test System: E.COLI, Strain/Indicator: WP2UVRA, Metabolic Activation: RAT LIVER S-9, PHENOBARBITAL AND BETA-NAPHTHOFLAVONE, Method: PREINCUBATION): inactive; negative | mutagenic call (Test System: UDS HUMAN HELA CELLS, Strain/Indicator: THYMIDINE INCORPORATION, Metabolic Activation: NONE, Method: LIQUID SCINTILLATION COUNTING): inactive; negative

Cc1ccccc1NO
mutagenic call [1]: inactive; negative | mutagenic call (Test System: AMES SALMONELLA TYPHIMURIUM, Strain/Indicator: TA98, Metabolic Activation: RAT, LIVER, S-9, AROCLOR 1254, Method: PREINCUBATION): inactive; negative | mutagenic call [2]: inactive; negative | mutagenic call [3]: inactive; negative | mutagenic call [4]: active; positive | mutagenic call (Test System: AMES SALMONELLA TYPHIMURIUM, Strain/Indicator: TA100, Metabolic Activation: RAT, LIVER, S-9, PCB, Method: PREINCUBATION): active; positive
